From patent US20220146526A1, “METHOD FOR EVALUATING SAMPLE, ANALYSIS METHOD, METHOD FOR DETECTING DEGRADED SAMPLE, MARKER FOR DETECTING DEGRADED BLOOD PLASMA SAMPLE, AND MARKER FOR DETECTING DEGRADED SERUM SAMPLE” (SHIMADZU CORPORATION, priority 2019, published 2022)
Entries after “also recorded” stand apart in the source; their conditions may differ. Each block holds one molecule with its values, some of them ahead of it.

Key:
Type in all cases: physicochemical, human
[1] = GC/MS of serum sample: number of times of freezing and thawing (Table I); design: key to Rate of increase or decrease / Rate of increase or decrease (first value, increase): detection intensity relative to 2 freeze-thaw cycles = 1; conditions: for Rate of increase or decrease: detection intensity relative to 1 at 2 times
In short: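 Detection intensities are ratios to the value after two freeze–thaw cycles, which is set as 1, compared against 4, 6 and 10 cycles. Analysis used methoxymation and trimethylsilylation derivatization, then GC/MS with EI ionization and multiple reaction monitoring on a BPX5 column. Serum came from blood held at room temperature and spun at 3500 rpm for 5 min.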

[2] = GC/MS of blood plasma sample: time from blood collection to cooling of blood (Table B); design: key to Rate of increase or decrease / Rate of increase or decrease (first value, increase): detection intensity relative to 1 at cooling time ≤1 min; conditions: for Rate of increase or decrease: detection intensity relative to 1 at 1 minute or less, blood collection to cooling 5 minutes; for Increase or decrease: detection intensity, blood collection to cooling 5 minutes or more vs 1 minute or less
Experimental: (§1) At room temperature, 5 mL of blood from a healthy subject was taken into a blood-collecting vessel containing EDTA, and the blood-collecting vessel was inverted for mixing, then cooled, and allowed to stand at 4° C. Here, in order to investigate how the detection intensity of molecules contained in the sample was affected in a case where the time to cooling was set to 5 minutes or more as compared to that in a case where the time to cooling was set to 1 minute or less, preparations were performed under both the former condition and the latter condition. After standing, the blood sample was subjected to centrifugation under a condition of 4° C., 3000 rpm, and 15 minutes. […] After centrifugation, the blood-collecting vessel was left to stand at room temperature for 30 minutes, and the blood plasma was isolated during this 30 minutes. The obtained blood plasma sample was frozen and stored. Here, in order to investigate how the detection intensity of molecules contained in the sample was affected in cases where freezing and thawing was performed 4 times, 6 times, and 10 times after freezing as compared to that in a case where freezing and thawing was performed 2 times after freezing, freezing and thawing was performed under the respective conditions of 2, 4, 6, and 10 times.
(§2) Frozen blood plasma samples and serum samples were subjected to GC/MS or LC/MS. In GC/MS, the blood plasma samples and serum samples were subjected to methoxymation and trimethylsilylation and then introduced to GC-MS.
GC/MS was conducted using GCMS·TQ8040 (Shimadzu Corporation) that was a GC·MS equipped with AOC·20i (Shimadzu Corporation) as an autosampler.
Column: BPX5 (inner diameter of 0.25 mm, length of 30 m, and film thickness of 0.25 μm) (SGE)
Column temperature: maintained at 60° C. for 2 minutes, then raised at 15° C./min, and maintained at 330° C. for 3 minutes.
Inlet temperature: 250° C.
Carrier gas control mode: constant linear velocity of 39.0 cm/sec
Sample introduction method: split (split ratio of 30:1) Injection volume: 1 μL
Ionization method: electron ionization
Ionization current: 60 μA
Interface temperature: 280° C.
Ion source temperature: 200° C.
(§3) Mode: multiple reaction monitoring (MRM)
Table B presents compounds of which the detection intensity increased or decreased by 30% or more in a case where the time from blood collection to cooling of blood, when a blood plasma sample was analyzed by GC/MS, was set to 5 minutes or more as compared to that in a case where the time was set to 1 minute or less. The rate of increase or decrease in Table B is the value of detection intensity relative to 1 that is the detection intensity in a case where the time from blood collection to cooling is set to 1 minute or less.

[3] = GC/MS of serum sample: time from centrifugation to isolation (Table H); design: key to Rate of increase or decrease / Rate of increase or decrease (first value, increase): detection intensity relative to 1 at 30 min centrifugation-to-isolation
In short: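 Values are GC/MS (EI, MRM) detection intensities of methoxymated/trimethylsilylated serum, normalised to 1 for the 30-min sample. Serum was isolated 30 min, 1 h or 6 h after room-temperature centrifugation (3500 rpm, 5 min) of blood.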

[4] = GC/MS of serum sample: time from blood collection to centrifugation (Table G); conditions: blood collection to centrifugation; for Rate of increase or decrease: detection intensity relative to 1 at 15 minutes; for Increase or decrease: detection intensity
In short: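 Values express detection intensity as a ratio to the sample centrifuged 15 minutes after blood collection (taken as 1). Serum was derivatized by methoxymation and trimethylsilylation, then analysed by electron-ionization GC/MS using multiple reaction monitoring on a BPX5 column ramped from 60 to 330° C.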

[5] = LC/MS of serum sample: number of times of freezing and thawing (Table M); design: key to Rate of increase or decrease: detection intensity relative to 1 at 2 freeze-thaw cycles
In short: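 Values are detection intensities relative to serum thawed twice, versus 4, 6 or 10 freeze-thaw cycles. Serum came from blood spun at room temperature, 3500 rpm for 5 minutes. Analysis: electrospray LC/MS in MRM mode, Discovery HS F5-3 column, 40° C, 0.1% formic acid in water and acetonitrile.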

[6] = LC/MS of blood plasma sample: number of times of freezing and thawing (Table F)
Experimental: as §1, §2
(§4) Analysis column: Discovery HS F5-3 (inner diameter of 2.1 mm, length of 150 mm, film thickness of 3 μm) (Sigma-Aldrich)
(§5) Column temperature: 40° C.
(§6) (A) 0.1% formic acid (dissolved in water)
(§7) (B) 0.1% formic acid (dissolved in acetonitrile)
(§8) Flow velocity: 0.25 mL/min
(§9) Ionization method: electrospray
(§10) Temperature: • Desolvation Line (DL) temperature: 250° C. • Heat block temperature: 400° C. • Interface temperature: 300° C.
(§11) Gas flow rate: • Nebulizer gas flow rate: 3.0 L/min • Drying gas flow rate: 10.0 L/min • Heating gas flow rate: 10.0 L/min
as §3
The rate of increase or decrease in Table F is the value of detection intensity relative to 1 that is the detection intensity in a case where the number of times of freezing and thawing is set to 2 times.

[7] = LC/MS of serum sample: time from blood collection to centrifugation (Table J)
Experimental: After standing, the blood sample was subjected to centrifugation under a condition of room temperature, 3500 rpm, and 5 minutes. […] After centrifugation, the blood-collecting vessel was left to stand at room temperature, and the serum was isolated during this time. Here, in order to investigate how the detection intensity of molecules contained in the sample was affected in cases where the time during which the blood-collecting vessel was left at room temperature was set to 1 hour and 6 hours as compared to that in a case where the time was set to 30 minutes, preparations were performed under the respective conditions of 30 minutes, 1 hour, and 6 hours. The obtained serum sample was frozen and stored. Here, in order to investigate how the detection intensity of molecules contained in the sample was affected in cases where freezing and thawing was performed 4 times, 6 times, and 10 times after freezing as compared to that in a case where freezing and thawing was performed 2 times after freezing, freezing and thawing was performed under the respective conditions of 2, 4, 6, and 10 times.
as §2, §4, §5, §6, §7, §8, §9, §10, §11, §3
The rate of increase or decrease in Table J is the value of detection intensity relative to 1 that is the detection intensity in a case where the time from blood collection to centrifugation is set to 15 minutes.

[8] = LC/MS of blood plasma sample: time from blood collection to centrifugation (Table D); conditions: blood collection to centrifugation
In short: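 Detection intensities are expressed relative to samples centrifuged 15 min after collection (=1), measured by electrospray LC/MS in MRM mode (Discovery HS F5-3, 40 °C, formic acid water/acetonitrile gradient at 0.25 mL/min). EDTA blood from a healthy donor was held at 4 °C, centrifuged at 4 °C, 3000 rpm, 15 min, and plasma frozen.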

[9] = detection intensity, serum, GC/MS, freezing and thawing 4 times vs 2 times

Rate of increase or decrease ([1]; serum, GC/MS, freezing and thawing 4 times): 0.63
Increase or decrease [1, 9]: Decrease
Rate of increase or decrease [2]: 1.37
Increase or decrease [2]: Increase
SMILES: O=CC(=O)O [Glyoxylic acid]

Increase or decrease [1, 9]: Increase; also recorded: Decrease
Rate of increase or decrease [2]: 1.42
Increase or decrease [2]: Increase
Rate of increase or decrease ([3]; detection intensity relative to 1 at 30 minutes, after 1 hour): 0.30
Increase or decrease ([3]; detection intensity, after 1 hour vs 30 minutes): Decrease
Rate of increase or decrease ([4]; after 4 hours): 3.17
Rate of increase or decrease ([4]; after 12 hours): 1.30
Increase or decrease ([4]; after 4 hours vs 15 minutes): Increase
Increase or decrease ([4]; after 12 hours vs 15 minutes): Decrease
SMILES: O=C1CCNC(=O)N1 [Dihydrouracil]

Rate of increase or decrease ([1]; 10 times of freezing and thawing): 0.66
Number of times when compound is affected ([1]; serum sample, GC/MS, detection intensity changed by 30% or more vs 2 times of freezing and thawing): 10 times
Increase or decrease ([1]; serum sample, GC/MS, detection intensity vs 2 times of freezing and thawing): Decrease
Rate of increase or decrease [2]: 0.61
Increase or decrease [2]: Decrease
Rate of increase or decrease ([4]; after 4 hours): 1.40
Increase or decrease ([4]; after 4 hours vs 15 minutes): Increase
SMILES: O=C(O)CO [Glycolic acid]

SMILES: N=C(N)NCCC[C@H](N)C(=O)O [Arginine]
Rate of increase or decrease ([5]; 6 times of freezing and thawing, detection intensity relative to 1 at 2 times): 0.64
Number of times when compound is affected ([5]; serum sample, LC/MS, detection intensity changed by 30% or more vs 2 times of freezing and thawing): 6 times
Increase or decrease ([5]; serum sample, LC/MS, detection intensity vs 2 times of freezing and thawing): Decrease
Rate of increase or decrease ([1]; serum, GC/MS, freezing and thawing 10 times): 1.51
Increase or decrease ([1]; detection intensity, serum, GC/MS, freezing and thawing 10 times vs 2 times): Increase
Rate of increase or decrease ([6]; detection intensity relative to 1 at 2 times, freezing and thawing 4 times): 1.34
Increase or decrease ([6]; detection intensity, freezing and thawing 4 times vs 2 times): Increase
Rate of increase or decrease ([7]; after 6 hours from blood collection to centrifugation, detection intensity relative to 1 at 15 minutes): 0.54
Increase or decrease ([7]; serum sample, LC/MS, detection intensity vs 15 minutes from blood collection to centrifugation): Decrease
Time when compound is affected ([7]; serum sample, LC/MS, time from blood collection to centrifugation, detection intensity changed by 30% or more vs 15 minutes): After 6 hours
Rate of increase or decrease ([8]; detection intensity relative to 1 at 15 minutes, after 6 hours): 0.69
Increase or decrease ([8]; detection intensity, after 6 hours vs 15 minutes): Decrease
